Earlier results on 90 compounds are cited in the CATMoS acute toxicity set (Mansouri et al. 2021).

Each structure is given as a SMILES string. “And” between values parts separate entries of the source, which are not always exact repeats. Equal entries are not always repeated.

The series can be described thus: rat acute oral toxicity. The following applies: in vivo.
On to `CCOC(C1=NCCCN1)c1cccc2ccccc12` (stereo not given), for which the LD50 was 375 mg/kg.

In the case of `CCN(CC)S(=O)(=O)c1c(Cl)c(Cl)c(Cl)c2[nH]c(C(F)(F)F)nc12`, the LD50 was 11.2 mg/kg.

With `CCOC(=O)c1c(C)cc2nc(COC(=O)NC)n(-c3ccccc3Cl)c(=O)c2c1C`, the LD50 is 2500 mg/kg.

With `CNC(=O)N(C)N=O`, the LD50 is 280 mg/kg.

Consider `Cc1c(Cl)c(Cl)c2nc(C(F)(F)F)[nH]c2c1Cl`, for which the LD50 was 18.3 mg/kg.

`COc1ccc2c(c1)CCCC2=O`: the LD50 was 300 mg/kg.

Consider `Cl/C(=N/Nc1c(Cl)cc(Cl)cc1Cl)c1ccccc1`, for which the LD50 was 718 mg/kg.

In the case of `CCN(CC)C(=S)N/N=C/c1ccc([N+](=O)[O-])o1`, the LD50 is 750 mg/kg.

As for `Cc1ccc(/N=C/NSN(Cc2ccccc2)Cc2ccccc2)c(C)c1`, the LD50 was 1050 mg/kg.

Consider `C=CC(O)CCCCC` (stereo not given), for which the 50% lethal dose (LD50) was 340 mg/kg.

In the case of `CCCCCCCc1cc(C)c(O)c(C)c1`, the LD50 was 1600 mg/kg.

Turning to `c1coc(OCC2CO2)c1` (stereo not given), the LD50 was 1100 mg/kg.

For `NC(=S)Cc1cccc2ccccc12`, the median lethal dose (LD50) was 60 mg/kg.

For `COP(=O)(OC)SC(C)C`, the LD50 was 108 mg/kg.

For `O=C(O)C(Cl)CCl` (stereo not given), the median lethal dose (LD50) was 289 mg/kg.

For the compound `CCCCC(CC)COC(=O)C=CC(=O)OCC(CC)CCCC` (stereo not given), the LD50 is 29200 mg/kg and 14000 mg/kg.

In the case of `O=NN1CCCCCCCC1`, the median lethal dose (LD50) was 566 mg/kg.

As for `C=CC(=O)NCC(OC)OC`, the LD50 was 1200 mg/kg.

For `Cc1cc(N=Nc2ccc(S(=O)(=O)O)cc2)c(N)c(N=Nc2ccc(-c3ccc(N=Nc4cc(C)c(O)c(C(=O)O)c4)cc3)cc2)c1N`, the LD50 was 9960 mg/kg.

In the case of `CCO[Si](CC)(OCC)OCC`, the LD50 is 14000 mg/kg.

As to `C[C@@H](NCCc1ccc(O)cc1)[C@@H](O)c1ccc(O)cc1` (racemic), the LD50 is 1840 mg/kg.

With `COc1ccc2c(c1)c(CC(=O)OC/C=C(\C)CC/C=C(\C)CCC=C(C)C)c(C)n2C(=O)c1ccc(Cl)cc1`, the LD50 was 1680 mg/kg.

Take `O=[N+]([O-])c1cc([N+](=O)[O-])c(Nc2cc(C(F)(F)F)ccc2Cl)c(C(F)(F)F)c1`: the LD50 is 94 mg/kg.

On to `CN(CCO)CC(O)Cn1cnc2c1c(=O)n(C)c(=O)n2C` (stereo not given), for which the LD50 is 14100 mg/kg.

`CN1CCN(CC(=O)NN=Cc2ccc([N+](=O)[O-])o2)CC1`: the LD50 is 1350 mg/kg.

As to `O=C(O)CCC(CC(=O)O)(C(=O)O)P(=O)(O)O` (stereo not given), the LD50 was 4000 mg/kg.

On to `CCc1cccc(C)c1N`, for which the LD50 was 885 mg/kg.

Consider `OC1(c2ccc(Cl)cc2)N=CN[n+]2ccc3ccccc3c21` (stereo not given), for which the 50% lethal dose (LD50) was 1300 mg/kg.

Take `CN(C)S(=O)(=O)CCNC(=O)N(CCCl)N=O`: the LD50 is 39 mg/kg.

`CCB(CC)CC`: the LD50 is 235 mg/kg.

For `OC(Nc1nccs1)C(Cl)(Cl)Cl` (stereo not given), the LD50 was 2500 mg/kg.

In the case of `ClCCCCCCCCC(Cl)(Cl)Cl`, the LD50 is 370 mg/kg.

In the case of `CC(C)=CCC(CCN1CCCC1)(C(N)=O)c1cccc2ccccc12` (stereo not given), the median lethal dose (LD50) is 71 mg/kg.

Take `CCOC(=O)C=[N+]=[N-]`: the LD50 was 400 mg/kg.

As to `CN1CC[C@@]23CCCC[C@@H]2[C@@H]1Cc1ccc(O)cc13`, the LD50 is 1100 mg/kg.

On to `c1coc(COCc2ccco2)c1`, for which the LD50 was 210 mg/kg.

As to `c1ccc(C2(N3CCCCC3)CCCCC2)cc1`, the LD50 was 135 mg/kg.

As for `CCCN(CCC)c1c([N+](=O)[O-])cc(C(C)=O)cc1[N+](=O)[O-]`, the LD50 was 750 mg/kg.

Turning to `Cc1nc2n(c(=O)c1CCN1CCC(c3noc4cc(F)ccc34)CC1)CCC[C@H]2O`, the LD50 is 65 mg/kg.

On to `CCCCNCCC[Si](OC)(OC)OC`, for which the LD50 was 12800 mg/kg.

Turning to `O=C(Nc1cc(Cl)ccc1Cl)c1cc(Cl)cc(-c2ccccc2)c1O`, the LD50 is 6310 mg/kg.

Take `Cc1ccccc1N=C=O`: the LD50 was 1600 mg/kg.

Consider `NC1Cc2ccccc2C1`, for which the LD50 is 326 mg/kg.

In the case of `c1ccc(C2=C(c3ccccc3)SCCO2)cc1`, the LD50 was 3000 mg/kg.

For the compound `O=C(O)c1ccccc1Nc1cccc(C(F)(F)F)c1`, the LD50 is 249 mg/kg.

For the compound `CC(O)(c1ccc(Cl)cc1)c1ccc(Cl)cc1`, the LD50 was 500 mg/kg.

With `COP(=S)(NC(C)C)Oc1ccc(C)cc1[N+](=O)[O-]` (stereo not given), the median lethal dose (LD50) was 309 mg/kg.

Consider `CN(CCO)Cc1cc(C(=O)c2cccs2)cc(C(C)(C)C)c1O`, for which the LD50 is 1000 mg/kg.

Consider `NCCNCCNCCN`, for which the LD50 is 2500 mg/kg and 2280 mg/kg.

`O=P(O)(O)CN(CP(=O)(O)O)CP(=O)(O)O`: the LD50 was 17800 mg/kg.

For the compound `O=C(Cl)C(Cl)Cl`, the LD50 is 2460 mg/kg.

As for `CCOP(=S)(CCl)Oc1ccc([N+](=O)[O-])cc1` (stereo not given), the LD50 was 127 mg/kg.

On to `FC(F)(F)c1cccc(Nc2ccccc2-c2nn[nH]n2)c1`, for which the LD50 was 455 mg/kg.

As for `C=C(C)C(=O)OCCCl`, the 50% lethal dose (LD50) was 200 mg/kg.

In the case of `C=CC(=O)NC(C)C`, the LD50 was 375 mg/kg.

On to `Cc1cccc(I)c1`, for which the LD50 is 2300 mg/kg.

Take `C=CCC(CC=C)(C(=O)OCCN(CC)CC)c1ccccc1`: the LD50 is 1500 mg/kg.

In the case of `COc1c(OP(=S)(OCC(C)C)OCC(C)C)cnn(C)c1=O`, the LD50 is 135 mg/kg.

Regarding `O=S1(=O)CCN(c2ccccc2)CC1`, the LD50 was 800 mg/kg.

As to `CCCC1C(=O)N(c2ccccc2)N(c2ccccc2)C1=O`, the LD50 is 529 mg/kg.

With `Cc1nc2ccccc2[se]1`, the 50% lethal dose (LD50) was 471 mg/kg.

`CC(=O)c1ccc2c(c1)N(CCCN1CCN(C)CC1)c1ccccc1S2`: the LD50 is 650 mg/kg.

Take `CN=C(O)O/N=C1\SCOC1C(C)C` (stereo not given): the 50% lethal dose (LD50) is 16 mg/kg.

With `O=C(O)Cc1ccc2c(c1)OCc1ccccc1C2=O`, the LD50 is 110 mg/kg.

With `CCS(=O)(=O)CCO`, the LD50 was 18000 mg/kg.

Consider `C=C(CC(=O)c1ccc(-c2ccccc2Cl)cc1)C(=O)O`, for which the median lethal dose (LD50) is 2400 mg/kg.

Turning to `Cc1cnc(C)cn1`, the LD50 is 1020 mg/kg.

For the compound `O=C1c2cccc(Br)c2C(=O)C1c1ccccc1` (stereo not given), the 50% lethal dose (LD50) was 745 mg/kg.

As to `CCC(C)CC(CC)Nc1ccc(NC(CC)CC(C)CC)cc1` (stereo not given), the LD50 is 2400 mg/kg.

In the case of `CCCC/C=C/C=O`, the LD50 was 1300 mg/kg.

For the compound `c1ccc2c(c1)OCO2`, the LD50 is 580 mg/kg.

For `Cc1cnc(C)c(C)n1`, the LD50 was 806 mg/kg.

`O=C1C=Cc2cc(Br)ccc2C1=O`: the LD50 was 3900 mg/kg.

Take `CC(=O)c1ccc(O)c(C(N)=O)c1`: the 50% lethal dose (LD50) is 1700 mg/kg.

For `N#CCCSCCC#N`, the LD50 is 4210 mg/kg.

Take `Cc1cc(Cl)ccc1OCC(=O)O`: the LD50 is 1200 mg/kg and 800 mg/kg.

As for `CC(C)C1C=C2CC[C@H]3[C@](C)(CO)CCC[C@]3(C)[C@H]2CC1` (stereo not given in full), the LD50 is 70000 mg/kg.

Take `Nc1ccc(O)c(C(=O)O)c1`: the median lethal dose (LD50) was 2800 mg/kg.

As for `CCCCCCCCCCCCCCCCCCP(=O)(OC)OC`, the LD50 is 15400 mg/kg.

As to `Cc1ccccc1CNC1=NCCS1`, the LD50 was 164 mg/kg.

As for `CCCCCCCl`, the LD50 was 7000 mg/kg.

As for `CC(C)(CNc1ccc(N=O)cc1)[N+](=O)[O-]`, the median lethal dose (LD50) was 2730 mg/kg.

On to `C#CCc1cc(COC(=O)C2C(C=C(C)C)C2(C)C)c(C)o1` (stereo not given), for which the LD50 was 14000 mg/kg.

For the compound `CCSC(=O)Oc1c(C(C)CC)cc([N+](=O)[O-])cc1[N+](=O)[O-]` (stereo not given), the 50% lethal dose (LD50) was 147 mg/kg.

On to `CC(C)(C#N)Nc1nc(Cl)nc(NC2CC2)n1`, for which the LD50 is 290 mg/kg.

Regarding `c1cc(CC2CO2)cc(CC2CO2)c1` (stereo not given), the LD50 was 4190 mg/kg.

For `O=C(O)c1cc(Cl)ccc1O`, the LD50 is 250 mg/kg.

`CCCC/C=C\CCCCCCOC(C)=O`: the LD50 was 13400 mg/kg.

For the compound `CC(C)(C)c1ccc2nc(C(F)(F)F)[nH]c2c1`, the LD50 was 35 mg/kg.

With `Cc1ccc(C(=O)c2ccc(CC(=O)O)n2C)cc1`, the LD50 is 293 mg/kg.

Broadly, the LD50 is the dose at which mortality reaches 50%.
